Data taken from the NIST ThermoML archive (doi:10.1021/je0505164).
Numbers after ± are expanded uncertainties.

Conditions: Liquid; for mass density: 298.15 K, 101.33 kPa; for Normal boiling temperature: Ebulliometric method (Recirculating still)

Row | mass density [kg/m3] | Normal boiling temperature [°C] | SMILES
1 | 785.1 ± 0.3 | 78.31 ± 0.2 | CCO [ethanol]
2 | 799.6 ± 0.3 | 97.06 ± 0.2 | CCCO [propan-1-ol]
3 | 780.8 ± 0.3 | 82.24 ± 0.2 | CC(C)O [propan-2-ol]
